Experiments:
[1] = Dynamic Vapor Sorption (DVS) analysis / hygroscopicity of salt forms; format: physicochemical; details: for Hygroscopicity by DVS analysis / Hygroscopicity: DVS at 25° C.; for Hygroscopicity: Table 4
Description: DVS analysis was carried out using a Surface Measurement System DVS Intrinsic analyzer (SMS, UK). The instrument balance was calibrated with standard weights. Approximately 15-20 mg of sample was loaded into a pan for analysis. The sample was analyzed at 25° C. in 10% relative humidity (RH) steps from 50% to 95% RH (adsorption cycle), from 95% to 0% RH (desorption cycle), and from 0% to 50% RH (adsorption cycle). The movement from one step to the next occurred either after satisfying the equilibrium criterion of 0.002% weight change (dm/dt) or, if the equilibrium criterion was not met, after six hours. […]

[2] = Solid form stability (physical by XRPD, chemical by GC purity) under stress storage; format: physicochemical; details: for 25° C./60% RH 2-weeks stability, Purity (%) / 40° C./75% RH 2-weeks stability, Purity (%) / 60° C. 2 weeks stability, Purity (%): GC purity; for 60° C. 2 weeks stability, XRPD: about 20 mg in glass weighing bottles
Description: Standard XRPD patterns were collected using a Bruker D8 Advance diffractometer (Bruker, GER). The X-ray source is a copper (Cu) tube that was operated at 40 kV and 40 mA. Powder samples were prepared on zero-background silicon (Si) holders using manual light pressure to keep the sample surfaces flat. Each sample was analyzed from 3 to 45° 2θ with an effective step size of 0.02° 2θ and 0.08 s exposure time.
Shimadzu GC-2104 (Shimadzu, Japan) was utilized for chemical purity characterization.
Several salts were further investigated for hygroscopicity, purity, and solid form stability. To determine solid form stability, glass weighing bottles containing about 20 mg samples were kept under (1) 60° C., (2) 25° C./60% RH, and (3) 40° C./75% RH conditions, respectively. After 1 week and 2 weeks, respectively, XRPD and GC analyses were conducted to investigate the physical and chemical stability of the selected forms under corresponding conditions.

SMILES	Hygroscopicity by DVS analysis [1]	Form conversion after DVS test ([1]; after DVS test)	Hygroscopicity [1]	25° C./60% RH 2-weeks stability, XRPD [2]	25° C./60% RH 2-weeks stability, Purity (%) [2] [%]	40° C./75% RH 2-weeks stability, XRPD [2]	40° C./75% RH 2-weeks stability, Purity (%) [2] [%]	60° C. 2 weeks stability, XRPD [2]	60° C. 2 weeks stability, Purity (%) [2] [%]	DVS weight gain at 80% RH ([1]; 25° C.)	DVS weight gain at 95% RH ([1]; 25° C.)	Deliquescence with high humidity [1]	DVS weight gain at 0% RH ([1]; 0% RH, 25° C.)
C1CCC(NC2CCCCC2)CC1.O=C(O)[C@H]1C[C@@H](OC(F)(F)F)C1 [VIa-1a DCHA salt Form A]	non-hygroscopic	no form conversion was detected	–	–	–	–	–	–	–	–	–	–	–
C1CCC(NC2CCCCC2)CC1.O=C(O)[C@H]1C[C@@H](OC(F)(F)F)C1 [VIa-1a, DCHA salt Form A]	–	–	non-	No change	99.7	No change	99.3	Sublimed	–	–	–	–	–
N=C(N)NCCC[C@H](N)C(=O)O.O=C(O)[C@H]1C[C@@H](OC(F)(F)F)C1 [VIa-1a, L-Arginine salt Form A]	–	–	hygroscopic	No change	98.8	Deliquesced	–	additional peak	99.2	–	–	–	–
N=C(N)NCCC[C@H](N)C(=O)O.O=C(O)[C@H]1C[C@@H](OC(F)(F)F)C1 [VIa-1a, L-arginine salt Form A]	high hygroscopicity	–	–	–	–	–	–	–	–	about 28%	about 74%	deliquesced with high humidity	–
CC(C)(C)N.O=C(O)[C@H]1C[C@@H](OC(F)(F)F)C1 [VIa-1a, TBA salt Form A]	–	–	non-	–	–	–	–	Sublimed^&	–	–	–	–	–
NC(CO)(CO)CO.O=C(O)[C@H]1C[C@@H](OC(F)(F)F)C1 [VIa-1a, TMA salt Form A]	non-hygroscopic	–	non-	No change	99.4	No change	99.3	No change	99.3	about 0.1%	about 47%	may deliquesce with high humidity (>90% RH)	about 7%

From patent US20250376432A1, “PROCESS FOR PREPARING MODULATORS OF EUKARYOTIC INITIATION FACTOR 2B” (Denali Therapeutics Inc., priority 2022, published 2025)
